Patent publication US9534059B2, “TIKI inhibitors” (Children's Medical Center Corporation, priority 2012, dated 2017)
Residue numbers refer to the chain shown, from its start. Names and notes keep the numbering of the source. “Also recorded” adds a separate entry of the source.

T1: TIKI2N (Homo sapiens, UniProt A6NFA1)
T1 construct: which is the extracellular domain of TIKI2 fused with a carboxyl FLAG tag and a 6×HIS tag; made in house; host or cells: HEK293T
T1 sequence (A6NFA1 20-486 limits assumed): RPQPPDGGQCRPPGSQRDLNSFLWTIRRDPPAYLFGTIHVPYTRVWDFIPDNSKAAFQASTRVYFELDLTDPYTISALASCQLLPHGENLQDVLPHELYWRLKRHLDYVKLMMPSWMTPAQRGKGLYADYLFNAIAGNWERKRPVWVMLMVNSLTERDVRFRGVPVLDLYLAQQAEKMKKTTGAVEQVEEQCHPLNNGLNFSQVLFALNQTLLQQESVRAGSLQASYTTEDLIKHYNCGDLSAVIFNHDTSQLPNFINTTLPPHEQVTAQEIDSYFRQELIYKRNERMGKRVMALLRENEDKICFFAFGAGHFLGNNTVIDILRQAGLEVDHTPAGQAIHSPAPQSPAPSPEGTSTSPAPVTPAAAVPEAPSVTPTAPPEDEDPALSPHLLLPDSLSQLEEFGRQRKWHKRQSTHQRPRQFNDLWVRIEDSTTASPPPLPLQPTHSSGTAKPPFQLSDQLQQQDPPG

B1: H58A: alanine mutation in Human TIKI2N construct (no transmembrane domain) (protein, UniProt A6NFA1 20-494, looked up, variant H58A)
extracellular domain: RPQPPDGGQCRPPGSQRDLNSFLWTIRRDPPAYLFGTIAVPYTRVWDFIPDNSKAAFQASTRVYFELDLTDPYTISALASCQLLPHGENLQDVLPHELYWRLKRHLDYVKLMMPSWMTPAQRGKGLYADYLFNAIAGNWERKRPVWVMLMVNSLTERDVRFRGVPVLDLYLAQQAEKMKKTTGAVEQVEEQCHPLNNGLNFSQVLFALNQTLLQQESVRAGSLQASYTTEDLIKHYNCGDLSAVIFNHDTSQLPNFINTTLPPHEQVTAQEIDSYFRQELIYKRNERMGKRVMALLRENEDKICFFAFGAGHFLGNNTVIDILRQAGLEVDHTPAGQAIHSPAPQSPAPSPEGTSTSPAPVTPAAAVPEAPSVTPTAPPEDEDPALSPHLLLPDSLSQLEEFGRQRKWHKRQSTHQRPRQFNDLWVRIEDSTTASPPPLPLQPTHSSGTAKPPFQLSDQLQQQDPPGPASSSAPT
modifications: extracellular domain
B2: R303A: alanine mutation in Human TIKI2N construct (no transmembrane domain) (protein, UniProt A6NFA1 20-494, looked up, variant R303A)
extracellular domain: B1 extracellular domain with A39H, R284A
modifications: extracellular domain
B3: T56A: alanine mutation in Human TIKI2N construct (no transmembrane domain) (protein, UniProt A6NFA1 20-494, looked up, variant T56A)
extracellular domain: B1 extracellular domain with T37A, A39H
modifications: extracellular domain
B4: H331A: alanine mutation in Human TIKI2N construct (no transmembrane domain) (protein, UniProt A6NFA1 20-494, looked up, variant H331A)
extracellular domain: B1 extracellular domain with A39H, H312A
modifications: extracellular domain
B5: E205A: alanine mutation in Human TIKI2N construct (no transmembrane domain) (protein, UniProt A6NFA1 20-494, looked up, variant E205A)
extracellular domain: B1 extracellular domain with A39H, E186A
modifications: extracellular domain
B6: E85A: alanine mutation in Human TIKI2N construct (no transmembrane domain) (protein, UniProt A6NFA1 20-494, looked up, variant E85A)
extracellular domain: B1 extracellular domain with A39H, E66A
modifications: extracellular domain

Experiments:
TIKI2N = target: T1, TIKI2N; assay: In vitro treatment of HA-Wnt3a with purified TIKI2N (cleavage, Western blotting); type: biochemical; settings: for TIKI2N activity (cleavage of HA-Wnt3a) in the presence of protease inhibitor / Effects of divalent metals on TIKI2N activity: in vitro; for TIKI2N activity (cleavage of HA-Wnt3a) in the presence of protease inhibitor: purified TIKI2N + recombinant HA-Wnt3a, Western blotting; for Effects of divalent metals on TIKI2N activity: 50 μM of each divalent metal ion, 2 hrs; for Rescue of TIKI2N activity with divalent metals after inhibition with 1,10-Phenanthroline: 20 μM 1,10-Phenanthroline 1 hr, then 50 μM metal ion for another 2 hrs
Experimental: HEK293T cells in 100 mm dishes were transfected with TIKI2N-, KRM2N-, TIKI2NΔ-FLAG-6×HIS (“6×HIS” disclosed as SEQ ID NO: 57) or HA-Wnt3a vectors. The medium containing transfection mixture was replaced with 6 ml fresh medium 24 hrs post-transfection, and incubated for another 24 hrs. To purify TIKI2N, KRM2N and TIKI2NΔ, cells were washed with PBS and lysed in ice-cold PBS containing 0.2% NP-40, 20 mM imidazole and the protease inhibitor cocktail (Roche) to make whole cell lysates (WCL). WCL was mixed with Ni-NTA agarose beads (QIAGEN) and incubated at 4° C. with rotation for 1 hr. The beads were pelleted by centrifugation and washed four times with PBS/0.2% NP-40 and the FLAG-6×HIS (“6×HIS” disclosed as SEQ ID NO: 57) fusion proteins were eluted with PBS/0.2% NP-40 containing 100 mM imidazole. The elute was diluted 3 time with PBS/0.2% NP-40 and were mixed with FLAG M2 agarose beads (Sigma). Following 2 hrs incubation with rotation at 4° C., the beads were pelleted by centrifugation and washed three times with PBS/0.2% NP-40 and one time with HEPES buffer (50 mM HEPES (pH 7.4), 100 mM NaCl, 0.2% NP-40). The FLAG fusion proteins were eluted with HEPES buffer containing 50 μg/ml 3×FLAG peptide. To purify HA-Wnt3a, the conditioned medium (CM) was collected and was cleared by centrifugation and 0.2% NP-40 was added. The CM was mixed with anti-HA agarose beads (Sigma). Following 2 hrs incubation with rotation at 4° C., the beads were pelleted by centrifugation and washed three times with PBS/0.2% NP-40 and one time with HEPES buffer (50 mM HEPES (pH 7.4), 100 mM NaCl, 0.2% NP-40). The HA-Wnt3a protein was eluted with HEPES buffer containing 300 μg/ml HA peptide.
About 50 ng purified TIKI2N, KRM2N, or TIKI2NΔ protein was mixed with 10 ng purified HA-Wnt3a in a total volume of 10 μl HEPES buffer (50 mM HEPES (pH 7.4), 100 mM NaCl, 0.2% NP-40) and incubated at 30° C. To examine TIKI2N activity in different pH conditions, the following buffer was used instead of HEPES, 100 mM sodium acetate (pH 5.5), 100 mM Tris-HCl (pH 6, 7, 8, 9) or 50 mM CAPS (pH 10, 11). The reaction product was analyzed by SDS-PAGE and Western blotting with anti-HA and anti-Wnt3a antibodies. For mass spectrometric analysis, 200 ng of recombinant Wnt3a (from Stem RD) was incubated with about 500 ng of TIKIN or KRM2N overnight at 30° C. and separated by SDS-PAGE. The Wnt3a bands were cut, trypsin digested and subjected to mass spectrometric analyses.
TIKI protease activity was characterized under in vitro conditions. […] Different protease inhibitors were applied to survey which protease family TIKI might belong to. […] Metalloproteases are defined by their dependence on divalent metals as co-factors (Barrett, 1998).

[1] = test system: Tiki1 and Dkk1 expression; assay: RT-PCR of Tiki1 and Dkk1 expression in treated whole embryos (FIG. 2M); type: in vivo, Xenopus
Experimental: (M) Tiki1 expression is regulated by maternal Wnt signaling. Whole embryos were used for LiCl or UV treatment. 20 or 40 pg of Xwnt8 mRNA was injected into the ventral marginal zone (VMZ) at 4 to 8-cell stage and the VMZ was dissected at stage 10.5 for RT-PCR. ΔNTCF mRNA (1 or 2 ng) was injected into the dorsal marginal zone (DMZ) at 4 to 8-cell stage and the DMZ was dissected at stage 10.5 for RT-PCR. Con: control.
Organizer formation requires maternal Wnt/β-catenin signaling (De Robertis and Kuroda, 2004; Harland and Gerhart, 1997), which is necessary and sufficient for Tiki1 (and Dkk1) expression. Ectopic Xwnt8 induced Tiki1 and Dkk1 expression ventrally, whereas a dominant negative TCF (T cell factor, a DNA-binding transcription factor that mediates beta-catenin signaling), ΔNTCF (Molenaar et al., 1996), suppressed the endogenous Tiki1 and Dkk1 dorsal expression (FIG. 2M). Furthermore LiCl, which stabilizes β-catenin thus dorsalizes embryos, induced Tiki1 and Dkk1 expression, while ultraviolet irradiation, which through microtubule disruption causes defective maternal Wnt signaling thus ventralizes embryos (Harland and Gerhart, 1997), suppressed Tiki1 and Dkk1 expression (FIG. 2M).

Wnt3a = assay: TOPFLASH assay of TIKI2N mutants co-transfected with Wnt3a in HEK293T cells; type: cell-based, human; settings: 5, 2.5, 1.25 and 0.612 ng plasmid with Wnt3a 20 ng
Experimental: FIG. 8B. Bar graph showing the results of a TOPFLASH assay testing TIKI2 mutations in Human TIKI2N construct (no transmembrane domain). Decreasing doses of 5, 2.5, 1.25 and 0.612 ng of the indicated TIKI2N expression plasmid were cotransfected with Wnt3a (20 ng) in HEK293T cells.
HEK293T, HeLa, L and L-Wnt3a cells (from ATCC) were maintained in Dulbecco's modified Eagle's medium (DMEM; Invitrogen) supplemented with 10% fetal bovine serum (FBS) and 1% penicillin-streptomycin-glutamine (Invitrogen). Lipofectamine 2000 (Invitrogen) or Fugene6 (Roche) was used for all cell transfections. L and L-Wnt3a cells that stably express TIKI2 were generated by infecting cells with retroviruses and selected by puromycin. L cells stably expressing Wnt3a(FLAG) were established by transfecting L cells with a Wnt3a(FLAG) expressing vector and selected with neomycine. L cells stably expressing both Wnt3a(FLAG) and TIKI2 were also generated. TOPFLASH reporter assay was performed as previously described (MacDonald et al., 2008).
A Wnt-responsive reporter (TOP-FLASH) assay was performed to test mutations at T56A, H58A, E85A, E205A, H256A, R303A, H331A in a Human TIKI2N construct (no transmembrane domain). Decreasing doses of 5, 2.5, 1.25 and 0.612 ng of the indicated TIKI2N expression plasmid were co-transfected with Wnt3a (20 ng) in HEK293T cells. […] T56A, H256A, and R303A had no effect on TIM activity, and so are likely to be less important sites for function.

Row | Molecule | Effects of divalent metals on TIKI2N activity (TIKI2N) | TIKI activity of TIKI2N mutants (inhibition of Wnt3a-induced TOPFLASH) (Wnt3a) | other results
1 | c1cnc2c(c1)ccc1cccnc12 [1,10-phenanthroline] | – | – | TIKI2N activity (cleavage of HA-Wnt3a) in the presence of protease inhibitor (TIKI2N): potently inhibited; TIKI2N activity (cleavage of HA-Wnt3a) in the presence of protease inhibitor (TIKI2N; listed as 1, 10-Phenanthroline): sensitive
2 | [Cl-].[Li+] [LiCl] | – | – | Tiki1 and Dkk1 expression [1]: induced
3 | [Zn+2] [Zn^2+] | inhibited TIKI2N activity | – | –
4 | CC(C)C[C@H](NC(=O)[C@@H](O)[C@H](N)Cc1ccccc1)C(=O)O [Bestatin] | – | – | TIKI2N activity (cleavage of HA-Wnt3a) in the presence of protease inhibitor (TIKI2N): not
5 | [Co+2] [Co^2+] | enhanced | – | Rescue of TIKI2N activity with divalent metals after inhibition with 1,10-Phenanthroline (TIKI2N): rescued; also recorded: fully restored
6 | [Ni+2] [Ni^2+] | inhibited TIKI2N activity | – | –
7 | [Mn+2] [Mn^2+] | enhanced | – | Rescue of TIKI2N activity with divalent metals after inhibition with 1,10-Phenanthroline (TIKI2N): rescued; also recorded: fully restored
8 | O=C(O)CN(CCN(CC(=O)O)CC(=O)O)CC(=O)O [EDTA] | – | – | TIKI2N activity (cleavage of HA-Wnt3a) in the presence of protease inhibitor (TIKI2N): inhibited TIKI2N activity; also recorded: inhibited, albeit more mildly
9 | [Cu+2] [Cu^2+] | inhibited TIKI2N activity | – | –
10 | B1 | – | inactive | –
11 | B2 | – | no effect | –
12 | B3 | – | no effect | –
13 | B4 | – | inactive | –
14 | B5 | – | inactive | –
15 | B6 | – | inactive | –
